Each structure is given as a SMILES string.

In this experiment the test system is Beet Armyworm (BAW) (Spodoptera exigua). The experiment in a line: Bioassay on Beet Armyworm (BAW), 128-well diet tray assay. The format is in vivo. The conditions noted are these: Table 3: Assay Results Part 1. On the procedure:
Certain molecules disclosed in this document were tested against BAW, CEW and CL using procedures described in the following examples. In the reporting of the results, the “BAW & CEW & CL Rating Table” was used (See Table Section).
Bioassays on BAW (Spodoptera exigua)
Bioassays on BAW were conducted using a 128-well diet tray assay. One to five second instar BAW larvae were placed in each well (3 mL) of the diet tray that had been previously filled with 1 mL of artificial diet to which 50 μg/cm^2 of the test compound (dissolved in 50 μL of 90:10 acetone-water mixture) had been applied (to each of eight wells) and then allowed to dry. Trays were covered with a clear self-adhesive cover, and held at 25° C., 14:10 light-dark for five to seven days. Percent mortality was recorded for the larvae in each well; activity in the eight wells was then averaged. The results are indicated in the tables entitled “Table 3: Assay Results Part 1” and “Table 4: Assay Results Part 2” (See Table Section).
On to `CN1CCC(NC(=O)c2ccc(/C=C/C(c3cc(Cl)c(Cl)c(Cl)c3)C(F)(F)F)cc2Br)CC1` (centres unmarked) [AC106, (E)-2-Bromo-N-(1-methylpiperidin-4-yl)-4-(4,4,4-trifluoro-3-(3,4,5-trichlorophenyl)but-1-en-1-yl)benzamide], for which the “BAW Rating” value is reported as “A (50-100)”.
To `O=C(NNc1ccc(/C=C/C(c2cc(Cl)c(Cl)c(Cl)c2)C(F)(F)F)cc1)C1CC1` (centres unmarked) [CC50, (E)-N′-(4-(4,4,4-Trifluoro-3-(3,4,5-trichlorophenyl)but-1-en-1-yl)phenyl)cyclopropanecarbohydrazide] belongs “A (50-100)”; to `CCc1cc(/C=C/C(c2cc(Cl)c(F)c(Cl)c2)C(F)(F)F)ccc1C(=O)NC1CS(=O)(=O)C1` (centres unmarked) [AC86], “A (50-100)”; to `CS(=O)(=O)CCC(=O)NCc1ccc(/C=C/C(c2cc(Cl)c(Cl)c(Cl)c2)C(F)(F)F)cc1Cl` (centres unmarked) [CC30, (E)-N-(2-Chloro-4-(4,4,4-trifluoro-3-(3,4,5-trichlorophenyl)but-1-en-1-yl)benzyl)-3-(methylsulfonyl)propanamide], “A (50-100)”.
The result for `O=C(CC(F)(F)F)NCc1ccc(/C=C/C(c2cc(Cl)c(Cl)c(Cl)c2)C(F)(F)F)cc1Br` (centres unmarked) [CC25] reads “A (50-100)”.
`Cc1cc(/C=C/C(c2cc(Cl)c(Cl)c(Cl)c2)C(F)(F)F)ccc1C(=O)NC1CSC1` (centres unmarked) [AC23]: the “BAW Rating” value was “A (50-100)”.
Regarding `O=C(NCc1ccc(Cl)nc1)c1ccc(/C=C/C(c2cc(Cl)c(Cl)c(Cl)c2)C(F)(F)F)cc1C(F)(F)F` (centres unmarked) [AC36], the “BAW Rating” value is on record as “A (50-100)”.
To `Cc1cc(/C=C/C(c2cc(Cl)cc(Cl)c2)C(F)(F)F)ccc1C(=O)NCc1nc2ccccc2s1` (centres unmarked) [AC42] belongs “A (50-100)”.
The result for `CCc1cc(/C=C/C(c2cc(Cl)c(F)c(Cl)c2)C(F)(F)F)ccc1C(=O)NCc1ccc(Cl)nc1` (centres unmarked) [AC72] reads “A (50-100)”.
With `Cc1cc(/C=C/C(c2cc(Cl)cc(Cl)c2)C(F)(F)F)ccc1-n1cncn1` (centres unmarked) [DC62], the “BAW Rating” value is reported as “A (50-100)”.
Regarding `C=CCNC(=S)NCc1ccc(/C=C/C(c2cc(Cl)c(Cl)c(Cl)c2)C(F)(F)F)cc1Cl` (centres unmarked) [CC38], the “BAW Rating” value is recorded as “A (50-100)”.
The result for `O=C(NC1CS(=O)(=O)C1)c1ccc(/C=C/C(c2cc(Cl)cc(Cl)c2)C(F)(F)F)cc1F` (centres unmarked) [AC83, (E)-4-(3-(3,5-Dichlorophenyl)-4,4,4-trifluorobut-1-en-1-yl)-N-(1,1-dioxidothietan-3-yl)-2-fluorobenzamide] reads “A (50-100)”; that for `CCNC(=S)NCc1ccc(/C=C/C(c2cc(Cl)c(Cl)c(Cl)c2)C(F)(F)F)cc1Cl` (centres unmarked) [CC37, (E)-1-(2-Chloro-4-(4,4,4-trifluoro-3-(3,4,5-trichlorophenyl)but-1-en-1-yl)benzyl)-3-ethylthiourea], “A (50-100)”; that for `Fc1cc(/C=C/C(c2cc(Cl)cc(Cl)c2)C(F)(F)F)ccc1-n1cncn1` (centres unmarked) [DC48], “A (50-100)”.
For `Fc1ccc(C(/C=C/c2ccc(-n3cncn3)cc2)C(F)(F)F)cc1` (centres unmarked) [DC7], the “BAW Rating” value was “A (50-100)”.
The result for `O=C(NCc1ccc(Cl)nc1)c1ccc(/C=C/C(c2cc(Cl)cc(Cl)c2)C(F)(F)F)cc1F` (centres unmarked) [AC49] reads “A (50-100)”; that for `Cc1cc(/C=C/C(c2cc(Cl)cc(Cl)c2)C(F)(F)F)ccc1C(=O)NC1CSC1` (centres unmarked) [AC10], “A (50-100)”; that for `Cc1cc(/C=C/C(c2cc(Cl)cc(Cl)c2)C(F)(F)F)ccc1C(=O)NCC(=O)NC1CS(=O)(=O)C1` (centres unmarked) [AC81], “A (50-100)”.
For the molecule `O=C(NC1C[S+]([O-])C1)c1ccc(/C=C/C(c2cc(Cl)c(F)c(Cl)c2)C(F)(F)F)cc1F` (centres unmarked) [AC87], the “BAW Rating” value is on record as “A (50-100)”.
To `O=C(NCc1ccc(/C=C/C(c2cc(Cl)cc(Cl)c2)C(F)(F)F)cc1Cl)C1CC1` (centres unmarked) [CC8] belongs “A (50-100)”; to `Fc1cc(F)cc(C(/C=C/c2ccc(-n3cncn3)cc2)C(F)(F)F)c1` (centres unmarked) [DC8], “A (50-100)”.
Take `Cc1cc(/C=C/C(c2cc(Cl)cc(Cl)c2)C(F)(F)F)cc(C#N)c1-n1cncn1` (centres unmarked) [DC44]: the “BAW Rating” value was “A (50-100)”.
The result for `FC(F)(F)c1cc(C(/C=C/c2ccc(-n3cncn3)cc2)C(F)(F)F)cc(C(F)(F)F)c1` (centres unmarked) [DC16] reads “A (50-100)”.
The result for `O=C(CC(F)(F)F)NC1CCCc2cc(/C=C/C(c3cc(Cl)c(Cl)c(Cl)c3)C(F)(F)F)ccc21` (centres unmarked) [BC5] reads “A (50-100)”.
In the case of `CC(=O)NCc1ccc(/C=C/C(c2cc(Cl)cc(Cl)c2)C(F)(F)F)cc1Cl` (centres unmarked) [CC7, (E)-N-(2-Chloro-4-(3-(3,5-dichlorophenyl)-4,4,4-trifluorobut-1-en-1-yl)benzyl)acetamide], the “BAW Rating” value is given as “A (50-100)”.
The result for `O=C(NC1CCN(C2COC2)CC1)c1ccc(/C=C/C(c2cc(Cl)c(Cl)c(Cl)c2)C(F)(F)F)cc1Br` (centres unmarked) [AC108, (E)-2-Bromo-N-(1-(oxetan-3-yl)piperidin-4-yl)-4-(4,4,4-trifluoro-3-(3,4,5-trichlorophenyl)but-1-en-1-yl)benzamide] reads “B (More than 0-Less than 50)”; that for `Cc1cc(/C=C/C(c2ccc(Cl)c(Cl)c2)C(F)(F)F)ccc1C(=O)NCc1ccc(Cl)nc1` (centres unmarked) [AC37], “A (50-100)”.
Regarding `O=C(CC(F)(F)F)NCc1ncc(/C=C/C(c2cc(Cl)c(Cl)c(Cl)c2)C(F)(F)F)cc1Cl` (centres unmarked) [CC44, (E)-N-((3-Chloro-5-(4,4,4-trifluoro-3-(3,4,5-trichlorophenyl)-but-1-en-1-yl)pyridin-2-yl)methyl)-3,3,3-trifluoropropanamide], the “BAW Rating” value was “A (50-100)”.
Regarding `O=C(CC(F)(F)F)NCc1ccc(/C=C/C(c2ccc(Cl)c(Cl)c2)C(F)(F)F)cc1Cl` (centres unmarked) [CC18], the “BAW Rating” value is on record as “A (50-100)”.
As to `FC(F)(F)C(/C=C/c1ccc(-n2cncn2)cc1)c1cc(Cl)cc(Cl)c1` (centres unmarked) [DC1, (E)-1-(4-(3-(3,5-Dichlorophenyl)-4,4,4-trifluorobut-1-en-1-yl)phenyl)-1H-1,2,4-triazole], the “BAW Rating” value is recorded as “A (50-100)”.
Consider `O=C(CC(F)(F)F)NNc1ccc(/C=C/C(c2cc(Cl)c(Cl)c(Cl)c2)C(F)(F)F)cc1` (centres unmarked) [CC51], for which the “BAW Rating” value was “A (50-100)”.
For `Cc1cc(/C=C/C(c2cc(Cl)c(F)c(Cl)c2)C(F)(F)F)ccc1C(=O)NCc1ccnc(Cl)c1` (centres unmarked) [AC54], the “BAW Rating” value is “A (50-100)”.
As for `O=C(NCc1ccc(/C=C/C(c2cc(Cl)c(Cl)c(Cl)c2)C(F)(F)F)cc1Br)C1CC1` (centres unmarked) [CC26], the “BAW Rating” value is “A (50-100)”.
The result for `O=C(NC1CS(=O)(=O)C1)c1ccc(/C=C/C(c2cc(Cl)c(Cl)c(Cl)c2)C(F)(F)F)cc1Br` (centres unmarked) [AC33] reads “A (50-100)”.
The result for `Cc1cc(/C=C/C(c2cc(Cl)cc(Cl)c2)C(F)(F)F)ccc1C(=O)NCc1cncnc1` (centres unmarked) [AC39, 4-((E)-3-(3,5-Dichlorophenyl)-4,4,4-trifluorobut-1-enyl)-2-methyl-N-((pyrimidin-5-yl)methyl)benzamide] reads “A (50-100)”.
To `C/C(=C\C(c1cc(Cl)cc(Cl)c1)C(F)(F)F)c1ccc(-n2cncn2)cc1` (centres unmarked) [DC68, (E)-1-(4-(4-(3,5-Dichlorophenyl)-5,5,5-trifluoropent-2-en-2-yl)phenyl)-1H-1,2,4-triazole] belongs “A (50-100)”; to `O=C(CNC(=O)c1ccc(/C=C/C(c2ccc(F)c(Cl)c2)C(F)(F)F)cc1Br)NCC(F)(F)F` (centres unmarked) [AC99], “A (50-100)”; to `Cc1cc(/C=C/C(c2cc(Cl)cc(Cl)c2)C(F)(F)F)ccc1C(=O)NCc1cnc(Cl)s1` (centres unmarked) [AC15], “A (50-100)”.
For the molecule `COc1c(Cl)cc(C(/C=C/c2ccc(-n3cncn3)c(C#N)c2)C(F)(F)F)cc1Cl` (centres unmarked) [DC34], the “BAW Rating” value is on record as “A (50-100)”.
The result for `FC(F)(F)c1cc(/C=C/C(c2cc(Cl)cc(Cl)c2)C(F)(F)F)ccc1-n1cncn1` (centres unmarked) [DC51] reads “A (50-100)”; that for `CCOC(=O)c1cc(/C=C/C(c2cc(Cl)cc(Cl)c2)C(F)(F)F)ccc1-n1cncn1` (centres unmarked) [DC60], “A (50-100)”; that for `Cc1cc(/C=C/C(c2cc(Cl)c(F)c(Cl)c2)C(F)(F)F)ccc1C(=O)NCc1ccc(Cl)cn1` (centres unmarked) [AC53], “A (50-100)”.
As to `FC(F)(F)C(/C=C/c1ccc(-n2cncn2)cc1Cl)c1cc(Cl)cc(Cl)c1` (centres unmarked) [DC67], the “BAW Rating” value is “A (50-100)”.
In the case of `Cc1cc(/C=C/C(c2cc(Cl)c(Cl)c(Cl)c2)C(F)(F)F)ccc1C(=O)NCc1ccc(Cl)nc1` (centres unmarked) [AC22], the “BAW Rating” value is reported as “A (50-100)”.
The result for `O=C(NCc1ccc(Cl)nc1)c1ccc(/C=C/C(c2cc(Cl)c(Cl)c(Cl)c2)C(F)(F)F)cc1Cl` (centres unmarked) [AC28] reads “A (50-100)”; that for `FC(F)(F)C(/C=C/c1ccc(CNc2ccccn2)c(Cl)c1)c1cc(Cl)c(Cl)c(Cl)c1` (centres unmarked) [CC43, (E)-N-(2-Chloro-4-(4,4,4-trifluoro-3-(3,4,5-trichlorophenyl)but-1-en-1-yl)benzyl)pyridin-2-amine], “A (50-100)”; that for `FC(F)(F)C(/C=C/c1ccc(-n2cncn2)cc1)c1ccc(Cl)cc1` (centres unmarked) [DC4], “A (50-100)”.
To `CCC(=O)NCc1ccc(/C=C/C(c2cc(Cl)cc(Cl)c2)C(F)(F)F)cc1` (centres unmarked) [CC4] belongs “A (50-100)”.
Regarding `Cc1cc(/C=C/C(c2cc(Cl)cc(Cl)c2)C(F)(F)F)ccc1C(=O)NN(C)c1ccccc1F` (centres unmarked) [AC45], the “BAW Rating” value is given as “A (50-100)”.
The result for `O=C(C1CC1)N(Cc1ccccn1)Cc1ccc(/C=C/C(c2cc(Cl)c(Cl)c(Cl)c2)C(F)(F)F)cc1C(F)(F)F` (centres unmarked) [CC29, (E)-N-(Pyridin-2-ylmethyl)-N-(4-(4,4,4-trifluoro-3-(3,4,5-trichlorophenyl)but-1-enyl)-2-(trifluoromethyl)benzyl)cyclopropanecarboxamide] reads “A (50-100)”.
